Experimental data published in US12491170B2, “Stable treprostinil prodrugs” (United Therapeutics Corporation, priority 2020, dated 2025).

experiment: not given; conditions: rat

SMILES | AUC [µmol·min/L]
CCCCCC(CCC1C(O)CC2Cc3c(cccc3OCC(=O)O)CC21)OCC (stereo not drawn) [XLVII] | 2.90
CCCCCC(CCC1C(O)CC2Cc3c(cccc3OCC(=O)O)CC21)OCCC (stereo not drawn) [XLVI] | 4.67

experiment: Stability in liver microsomes, human; conditions: not given

SMILES | Trep Concentration 0 min [µM] | Trep Concentration 10 min [µM] | Trep Concentration 20 min [µM] | Trep Concentration 30 min [µM] | Trep Concentration 60 min [µM]
CCCCCC(CCC1C(O)CC2Cc3c(cccc3OCC(=O)O)CC21)OCC (stereo not drawn) [XLVII] | 0 | 0.0448 | 0.0686 | 0.0816 | 0.124
CCCCCC(CCC1C(O)CC2Cc3c(cccc3OCC(=O)O)CC21)OCCC (stereo not drawn) [XLVI] | 0 | 0.0342 | 0.0556 | 0.0656 | 0.0835

same assay, conditions: human

SMILES | AUC [µmol·min/L]
CCCCCC(CCC1C(O)CC2Cc3c(cccc3OCC(=O)O)CC21)OCC (stereo not drawn) [XLVII] | 4.63
CCCCCC(CCC1C(O)CC2Cc3c(cccc3OCC(=O)O)CC21)OCCC (stereo not drawn) [XLVI] | 3.46

experiment: Stability in cryopreserved hepatocytes, dog; conditions: not given

SMILES | Trep Concentration (μM) 0 min [µM] | Trep Concentration (μM) 15 min [µM] | Trep Concentration (μM) 30 min [µM] | Trep Concentration (μM) 60 min [µM] | Trep Concentration (μM) 120 min [µM]
CCCCCC(CCC1C(O)CC2Cc3c(cccc3OCC(=O)O)CC21)OCC (stereo not drawn) [XLVII] | 0 | 0 | 0 | 0.00355 | 0.00371
CCCCCC(CCC1C(O)CC2Cc3c(cccc3OCC(=O)O)CC21)OCCC (stereo not drawn) [XLVI] | 0 | 0.00361 | 0.00376 | 0.00437 | 0.00465

same assay, conditions: dog

SMILES | AUC [µmol·min/L]
CCCCCC(CCC1C(O)CC2Cc3c(cccc3OCC(=O)O)CC21)OCC (stereo not drawn) [XLVII] | 0.27
CCCCCC(CCC1C(O)CC2Cc3c(cccc3OCC(=O)O)CC21)OCCC (stereo not drawn) [XLVI] | 0.47

experiment: Stability in human subcutaneous skin homogenate; conditions: not given

SMILES | Trep Concentration 0 min [µM] | Trep Concentration 30 min [µM] | Trep Concentration 60 min [µM] | Trep Concentration 120 min [µM]
CCCCCC(CCC1C(O)CC2Cc3c(cccc3OCC(=O)O)CC21)OCC (stereo not drawn) [XLVII] | 0 | – | – | –
CCCCCC(CCC1C(O)CC2Cc3c(cccc3OCC(=O)O)CC21)OCCC (stereo not drawn) [XLVI] | 0 | 0 | 0 | 0

same assay, conditions: human

SMILES | AUC [µmol·min/L]
CCCCCC(CCC1C(O)CC2Cc3c(cccc3OCC(=O)O)CC21)OCCC (stereo not drawn) [XLVI] | 0.00

experiment: Stability in cryopreserved hepatocytes, rat; conditions: not given

SMILES | Trep Concentration (μM) 0 min [µM] | Trep Concentration (μM) 15 min [µM] | Trep Concentration (μM) 30 min [µM] | Trep Concentration (μM) 60 min [µM] | Trep Concentration (μM) 120 min [µM]
CCCCCC(CCC1C(O)CC2Cc3c(cccc3OCC(=O)O)CC21)OCC (stereo not drawn) [XLVII] | 0 | 0.0168 | 0.0209 | 0.0231 | 0.0216
CCCCCC(CCC1C(O)CC2Cc3c(cccc3OCC(=O)O)CC21)OCCC (stereo not drawn) [XLVI] | 0 | 0.0144 | 0.0194 | 0.0209 | 0.0224

same assay, conditions: rat

SMILES | AUC [µmol·min/L]
CCCCCC(CCC1C(O)CC2Cc3c(cccc3OCC(=O)O)CC21)OCC (stereo not drawn) [XLVII] | 2.41
CCCCCC(CCC1C(O)CC2Cc3c(cccc3OCC(=O)O)CC21)OCCC (stereo not drawn) [XLVI] | 2.27

experiment: not given; conditions: dog

SMILES | AUC [µmol·min/L]
CCCCCC(CCC1C(O)CC2Cc3c(cccc3OCC(=O)O)CC21)OCC (stereo not drawn) [XLVII] | 1.62
CCCCCC(CCC1C(O)CC2Cc3c(cccc3OCC(=O)O)CC21)OCCC (stereo not drawn) [XLVI] | 2.78

experiment: Stability in liver microsomes, dog; conditions: not given

SMILES | Trep Concentration 0 min [µM] | Trep Concentration 10 min [µM] | Trep Concentration 20 min [µM] | Trep Concentration 30 min [µM] | Trep Concentration 60 min [µM]
CCCCCC(CCC1C(O)CC2Cc3c(cccc3OCC(=O)O)CC21)OCC (stereo not drawn) [XLVII] | 0 | 0.0118 | 0.0187 | 0.0285 | 0.0499
CCCCCC(CCC1C(O)CC2Cc3c(cccc3OCC(=O)O)CC21)OCCC (stereo not drawn) [XLVI] | 0 | 0.0211 | 0.0334 | 0.0485 | 0.0841

experiment: Stability in liver microsomes, rat; conditions: not given

SMILES | Trep Concentration 0 min [µM] | Trep Concentration 10 min [µM] | Trep Concentration 20 min [µM] | Trep Concentration 30 min [µM] | Trep Concentration 60 min [µM]
CCCCCC(CCC1C(O)CC2Cc3c(cccc3OCC(=O)O)CC21)OCC (stereo not drawn) [XLVII] | 0 | 0.0292 | 0.0421 | 0.0553 | 0.0719
CCCCCC(CCC1C(O)CC2Cc3c(cccc3OCC(=O)O)CC21)OCCC (stereo not drawn) [XLVI] | 0 | 0.0425 | 0.0633 | 0.0882 | 0.123

experiment: Stability in cryopreserved hepatocytes, human; conditions: not given

SMILES | Trep Concentration (μM) 0 min [µM] | Trep Concentration (μM) 15 min [µM] | Trep Concentration (μM) 30 min [µM] | Trep Concentration (μM) 60 min [µM] | Trep Concentration (μM) 120 min [µM]
CCCCCC(CCC1C(O)CC2Cc3c(cccc3OCC(=O)O)CC21)OCC (stereo not drawn) [XLVII] | 0 | 0.0152 | 0.0199 | 0.0215 | 0.0212
CCCCCC(CCC1C(O)CC2Cc3c(cccc3OCC(=O)O)CC21)OCCC (stereo not drawn) [XLVI] | 0 | 0.00507 | 0.00509 | 0.00568 | 0.0061

same assay, conditions: human

SMILES | AUC [µmol·min/L]
CCCCCC(CCC1C(O)CC2Cc3c(cccc3OCC(=O)O)CC21)OCC (stereo not drawn) [XLVII] | 2.28
CCCCCC(CCC1C(O)CC2Cc3c(cccc3OCC(=O)O)CC21)OCCC (stereo not drawn) [XLVI] | 0.63
